Assay [1] concerns cortisone reducing activity of cultured human adipocytes. In words: Inhibitory activity assay for cortisone reducing activity of cultured human adipocytes. To be noted: 100 nM [1,2-3H] cortisone, 37° C. for 3 hours. In kind it is cell-based. Here is the method: Normal human proadipocytes (HPrAD-vis, Cambrex) were inoculated on 48 well plate, and differentiated according to a protocol attached to a kit. Media for cells on 9-11th day of differentiation were changed to 0.2 ml of D-MEM media (GIBCO, Inc.) containing 100 nM [1,2-^3H] cortisone (1 μCi/well, Muromati Yakuhin), 0.5% DMSO, test compound (DMSO only for test compound-addition districts and test compound additive-free districts). After incubation at 37° C. for 3 hours, all media were collected. As background districts, cell additive-free media were used. Media were mixed with ethyl acetate (0.1 ml) in Eppendorf tube. The mixture was vortexed, and then centrifuged at 5,000 rpm×1 minute at room temperature to separate ethyl acetate (upper layer). Ethyl acetate (10 μl) was spotted on aluminum plate for thin-layer chromatography (silica gel 60 angstrom, Merck, referred to as TLC plate hereinafter). To a sealed vessel was added chloroform/methanol (90:10, v/v) as an eluent, and TLC plate was developed and then dried at room temperature. To the dried TLC plate was exposed an imaging plate (TR-2040, FUJIFILM) over 16 or more hours. After exposure, the imaging plate was analyzed by Bioimage analyzer (BAS2500, FUJIFILM), and [^3H] radioactivity of the spot corresponding to cortisol on TLC plate was determined Inhibitory activities of cortisone reducing activities of test compounds were calculated as below.
(Inhibitory activity (%))=100×((Test compound additive-free districts)−(Test compound-addition districts))/((Test compound additive-free districts)−(Background districts))
IC50 values were calculated by a linear regression of logarithmic values of analyte concentrations and inhibitory activity values using 2-point data wherein inhibitory activities indicated values around 50%. […] IC50 values for human adipocyte cortisone reducing activities of the following inventive compounds were determined

The target in another assay is T1, human 11βHSD1 (Homo sapiens, UniProt P28845).
T1 construct: made in house; host or cells: CHO-K1 cells stably transfected with pCMV-Tag 2B plasmid; pellet after ultracentrifugation at 100,000 g
Nature of the assay: Measurement of human 11βHSD1 inhibitory activity (HTRF cortisol detection). To be noted: human 11βHSD1 enzyme fraction, 20 nM cortisone, 37° C. for 2 hours. In kind it is biochemical. The source says:
A sequence containing ORF of human 11βHSD1 gene (GenBank Accession No. BC012593) was amplified according to PCR technique which was one of conventional methods, and digested by a restriction enzyme BamHI/XhoI. 2 kb of DNA fragments obtained from agarose gels were inserted into pCMV-Tag 2B plasmids (Stratagene) according to a conventional method. The plasmids prepared in Escherichia coli in large amounts were transformed into CHO-K1 cells, and then cells stably expressing human 11βHSD1 genes were selected by medium containing 400 μg/ml G-418 solution (GIBCO, Inc.) containing media. The resulting stably expressing cells were incubated up to −90% confluent in F-12 medium (Nacalai Tesque, Inc.) containing 10% charcoal-dextran treated fetal bovine serum (Hyclone), 1% penicillin-streptomycin (Nacalai Tesque, Inc.) and 400 μg/ml G-418. The resultant cells were treated by tripsin, and the obtained cells were suspended in the above media (1 L) and seeded in cell stack 10 chamber (Corning) in total amounts. The mixture was incubated in CO2 incubator (5% CO2, 37° C.) for 4-5 days, and then treated by tripsin. Total amounts of the obtained cells were washed with PBS buffer (GIBCO, Inc.), and stored at −80° C. […]
A test compound and cortisone (Sigma) was diluted with buffer (50 mM HEPES pH7.3, 150 mM NaCl, 1 mM EDTA) to prepare a substrate solution containing a test compound (50 mM HEPES pH7.3, 150 mM NaCl, 1 mM EDTA, 1 mM NADPH, 20 nM cortisone) (2% DMSO solution), and the solution was added to 384-well low-volume plate (manufactured by Greiner, No. 3782086) in 4 μl/well. […] After the enzyme reaction, the produced cortisol was detected by Homogeneous time-resolved fluorescence (HTRF) to determine enzyme inhibitory activities. […] A fluorescence intensity was determined by 2120 EnVision® Multilabel counter (PerkinElmer) to calculate enzyme inhibitory activities from 2 wavelengths of fluorescence intensity ratios (665 nm/620 nm).
Each inhibitory activity (%) of each test compound was calculated from the average value (%) of inhibitory activities of 4 wells under the same condition. […]
For orientation: Time-resolved FRET reads energy transfer from a long-lived donor to a nearby acceptor.

Molecules are shown by their SMILES.

For orientation: IC50 means the concentration at which inhibition is half-maximal.

T1 sequence (P28845 whole entry): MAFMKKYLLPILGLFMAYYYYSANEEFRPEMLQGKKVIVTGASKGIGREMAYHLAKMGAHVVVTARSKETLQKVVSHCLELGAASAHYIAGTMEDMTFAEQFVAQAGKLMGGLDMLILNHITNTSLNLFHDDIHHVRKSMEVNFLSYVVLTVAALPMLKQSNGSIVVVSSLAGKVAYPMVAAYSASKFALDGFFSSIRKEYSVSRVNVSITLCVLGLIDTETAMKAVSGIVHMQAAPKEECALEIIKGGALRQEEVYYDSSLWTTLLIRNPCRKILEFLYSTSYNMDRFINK

Regarding `COc1ccc(C2(N(C)c3c(Cl)c(C(=O)NC4C5CC6CC4CC(C(N)=O)(C6)C5)nn3C)CC2)cc1` (stereo not drawn) [Example 22, N-[(E)-5-(Aminocarbonyl)-2-adamantyl]-4-chloro-5-[[1-(4-methoxyphenyl)cyclopropyl](methyl)amino]-1-methyl-1H-pyrazole-3-carboxamide], the IC50 in assay [1] was found to be 1.8 nM.
At human 11βHSD1, `CN(CC1CC1)c1cc(C(=O)N[C@H]2C3CC4CC2C[C@](C(N)=O)(C4)C3)nn1C` [Example 15, N-[(E)-5-Carbamoyladamantan-2-yl]-5-[(cyclopropylmethyl)(methyl)amino]-1-methyl-1H-pyrazole-3-carboxamide] displayed an IC50 of 39 nM.
Same read-out and setting: under `CN(C)c1c(Cl)c(C(=O)N[C@H]2C3CC4CC2C[C@](C(N)=O)(C4)C3)nn1C` [Example 11, N-[(E)-5-Carbamoyladamantan-2-yl]-4-chloro-5-(dimethylamino)-1-methyl-1H-pyrazole-3-carboxamide] stands 32 nM; under `CN(c1cc(C(=O)N[C@H]2C3CC4CC2C[C@](C(N)=O)(C4)C3)nn1C)C1CCC1` [Example 19, N-[(E)-5-Carbamoyladamantan-2-yl]-5-[cyclobutyl(methyl)amino]-1-methyl-1H-pyrazole-3-carboxamide], 25 nM.
In assay [1] (Adipocyte), `CN(CC1CCN(c2ccc(C#N)cn2)CC1)c1c(Cl)c(C(=O)N[C@H]2C3CC4CC2C[C@](O)(C4)C3)nn1C` [Example 166, 4-Chloro-5-[{[1-(5-cyanopyridin-2-yl)piperidin-4-yl]methyl}(methyl)amino]-N-[(E)-5-hydroxy-2-adamantyl]-1-methyl-1H-pyrazole-3-carboxamide] came in with an IC50 of 6.4 nM.
`CC(C)N(C)c1cc(C(=O)N[C@H]2C3CC4CC2C[C@](C(N)=O)(C4)C3)nn1C` [Example 8, N-[(E)-5-Carbamoyladamantan-2-yl]-5-[isopropyl(methyl)amino]-1-methyl-1H-pyrazole-3-carboxamide]: in assay [1] (Adipocyte), inhibition was half-maximal at 8.7 nM (IC50).

Source of the values: patent US20110071289A1, “AMINOPYRAZOLE AMIDE DERIVATIVE” (DAINIPPON SUMITOMO PHARMA CO., LTD., priority 2007, published 2011).
